This is an account of results in patent publication EP1555944B1, “PACKAGED ANTIMICROBIAL MEDICAL DEVICE AND METHOD OF PREPARING SAME” (ETHICON, INC., priority 2002, dated 2004).

Data set [1] is described as follows: Triclosan distribution between suture and package components after sterilization. The settings on record: size 5-0 suture, 2% triclosan coating composition, about 23.2 µg before sterilization. In kind it is physicochemical. The method, then:
The coated sutures each were placed in a package as described herein above including a containment component, i.e., a tray, for holding the suture and a paper component for covering the suture in the tray. The suture in the containment component and packaging were sterilized as described herein above. After sterilization, it was determined that that suture contained about 5.5 µg triclosan, the tray about 0.2 µg triclosan, the paper component about 2.3 µg triclosan, and the package heat seal coating about 1.5 µg triclosan. Triclosan not recovered after sterilization was about 13.7 µg triclosan. Fig. 1 indicates triclosan transfer from the antimicrobial suture to the tray of the package as a function of time at 55°C.

The test system of the next data set is S. aureus. The settings on record: suitable growth medium; cited from earlier work.

`Oc1cc(Cl)ccc1Oc1ccc(Cl)cc1Cl` [2,4,4'-trichloro-2'-hydroxydiphenyl ether]: in data set [1], the “Triclosan not recovered after sterilization” value was “about 13.7 µg”, the “triclosan on package heat seal coating after sterilization” value is “about 1.5 µg”, the “triclosan on paper component after sterilization” value is recorded as “about 2.3 µg” and the “triclosan on suture after sterilization” value is “about 5.5 µg”. In data set [1], the “triclosan on tray after sterilization” value was “about 0.2 µg”. The “minimum inhibitory concentration (MIC)” value in the data set on S. aureus was 0.01 ppm.
